Laboratory results reported in US10428082B2, “Triazole derivatives of melampomagnolide B and methods of use thereof” (BioVentures, LLC, priority 2016, dated 2019).
Like-named read-outs stand apart in the source and are kept apart here.

Legend:
786-0 = experiment: NCI 60 growth inhibition; type: cell-based, human; details: Homo sapiens; 786-0, Renal Cancer, Table 2
Experimental: (§1) The above triazole derivatives of melampomagnolide B were evaluated for growth inhibitory properties against an NCI panel of 60 human cancer cell lines derived from nine human cancer cell types, grouped into disease sub-panels that represent leukemia, lung, colon, central nervous system (CNS), melanoma, renal, ovary, breast, and prostate cancer cells. Growth inhibitory (GI50) effects were measured as a function of the variation of optical density as a percentage of control.

CAKI-1 = experiment: NCI 60 growth inhibition; type: cell-based, human; details: Homo sapiens; CAKI-1, Renal Cancer, Table 2
Experimental: as §1

CCRF-CEM = experiment: NCI 60 growth inhibition; type: cell-based, human; details: Homo sapiens, Leukemia, Table 2
Experimental: as §1

COLO 205 = experiment: NCI 60 growth inhibition; type: cell-based, human; details: Homo sapiens; COLO 205, Colon Cancer, Table 2
Experimental: as §1

DU-145 = experiment: NCI 60 growth inhibition; type: cell-based, human; details: Homo sapiens; DU-145, Prostate Cancer, Table 2
Experimental: as §1

EKVX = experiment: NCI 60 growth inhibition; type: cell-based, human; details: Homo sapiens, Non-Small Cell Lung Cancer, Table 2
Experimental: as §1

HCC-2998 = experiment: NCI 60 growth inhibition; type: cell-based, human; details: Homo sapiens; HCC-2998, Colon Cancer, Table 2
Experimental: as §1

HCT-116 = experiment: NCI 60 growth inhibition; type: cell-based, human; details: Homo sapiens; HCT-116, Colon Cancer, Table 2
Experimental: as §1

HL-60(TB) = experiment: NCI 60 growth inhibition; type: cell-based, human; details: Homo sapiens; HL-60(TB), Leukemia, Table 2
Experimental: as §1

HOP-62 = experiment: NCI 60 growth inhibition; type: cell-based, human; details: Homo sapiens; HOP-62, Non-Small Cell Lung Cancer, Table 2
Experimental: as §1

HOP-92 = experiment: NCI 60 growth inhibition; type: cell-based, human; details: Homo sapiens; HOP-92, Non-Small Cell Lung Cancer, Table 2
Experimental: as §1

HS 578T = experiment: NCI 60 growth inhibition; type: cell-based, human; details: Homo sapiens, Breast Cancer, Table 2
Experimental: as §1

IGROV1 = experiment: NCI 60 growth inhibition; type: cell-based, human; details: Homo sapiens, IGROV-1; IGROV1, Ovarian Cancer, Table 2
Experimental: as §1

K-562 = experiment: NCI 60 growth inhibition; type: cell-based, human; details: Homo sapiens, K562; K-562, Leukemia, Table 2
Experimental: as §1

MALME-3M = experiment: NCI 60 growth inhibition; type: cell-based, human; details: Homo sapiens, Melanoma, Table 2
Experimental: as §1

MDA-MB-231/ATCC = experiment: NCI 60 growth inhibition; type: cell-based, human; details: Homo sapiens, Breast Cancer, Table 2
Experimental: as §1

MDA-MB-435 = experiment: NCI 60 growth inhibition; type: cell-based, human; details: Homo sapiens; MDA-MB-435, Melanoma, Table 2
Experimental: as §1

MDA-MB-468 = experiment: NCI 60 growth inhibition; type: cell-based, human; details: Homo sapiens; MDA-MB-468, Breast Cancer, Table 2
Experimental: as §1

MOLT-4 = experiment: NCI 60 growth inhibition; type: cell-based, human; details: Homo sapiens; MOLT-4, Leukemia, Table 2
Experimental: as §1

NCI-H226 = experiment: NCI 60 growth inhibition; type: cell-based, human; details: Homo sapiens; NCI-H226, Non-Small Cell Lung Cancer, Table 2
Experimental: as §1

NCI-H23 = experiment: NCI 60 growth inhibition; type: cell-based, human; details: Homo sapiens; NCI-H23, Non-Small Cell Lung Cancer, Table 2
Experimental: as §1

NCI-H322M = experiment: NCI 60 growth inhibition; type: cell-based, human; details: Homo sapiens, Non-Small Cell Lung Cancer, Table 2
Experimental: as §1

NCI-H460 = experiment: NCI 60 growth inhibition; type: cell-based, human; details: Homo sapiens; NCI-H460, Non-Small Cell Lung Cancer, Table 2
Experimental: as §1

NCI/ADR-RES = experiment: NCI 60 growth inhibition; type: cell-based, human; details: Homo sapiens, Ovarian Cancer, Table 2
Experimental: as §1

OVCAR-3 = experiment: NCI 60 growth inhibition; type: cell-based, human; details: Homo sapiens; OVCAR-3, Ovarian Cancer, Table 2
Experimental: as §1

PC-3 = experiment: NCI 60 growth inhibition; type: cell-based, human; details: Homo sapiens; PC-3, Prostate Cancer, Table 2
Experimental: as §1

RPMI-8226 = experiment: NCI 60 growth inhibition; type: cell-based, human; details: Homo sapiens; RPMI-8226, Leukemia, Table 2
Experimental: as §1

RXF 393 = experiment: NCI 60 growth inhibition; type: cell-based, human; details: Homo sapiens, RXF 393, RXF 393, Renal Cancer, Table 2
Experimental: as §1

SF-268 = experiment: NCI 60 growth inhibition; type: cell-based, human; details: Homo sapiens; SF-268, CNS Cancer, Table 2
Experimental: as §1

SK-MEL-28 = experiment: NCI 60 growth inhibition; type: cell-based, human; details: Homo sapiens; SK-MEL-28, Melanoma, Table 2
Experimental: as §1

SK-MEL-2 = experiment: NCI 60 growth inhibition; type: cell-based, human; details: Homo sapiens; SK-MEL-2, Melanoma, Table 2
Experimental: as §1

SK-OV-3 = experiment: NCI 60 growth inhibition; type: cell-based, human; details: Homo sapiens; SK-OV-3, Ovarian Cancer, Table 2
Experimental: as §1

SW-620 = experiment: NCI 60 growth inhibition; type: cell-based, human; details: Homo sapiens; SW-620, Colon Cancer, Table 2
Experimental: as §1

T-47D = experiment: NCI 60 growth inhibition; type: cell-based, human; details: Homo sapiens, T47D, Breast Cancer, Table 2
Experimental: as §1

UACC-62 = experiment: NCI 60 growth inhibition; type: cell-based, human; details: Homo sapiens; UACC-62, Melanoma, Table 2
Experimental: as §1

[1] = tested on: NCI panel of 60 human cancer cell lines; experiment: NCI 60 growth inhibition, ranges over groups of cell lines; type: cell-based
Experimental: as §1

Which results are given for C=C1C(=O)O[C@H]2[C@H]1CC/C(Cn1cc(-c3ccc(F)cc3)nn1)=C\CC[C@@]1(C)O[C@@H]21 [JVM 4-26]?
GI50 (786-0): 1060 nM; GI50 (CAKI-1): 1030 nM; GI50 (CCRF-CEM): 240 nM; GI50 (COLO 205): 450 nM; GI50 (DU-145): 690 nM; GI50 (EKVX): 1490 nM; GI50 (HCC-2998): 1740 nM; GI50 (HCT-116): 290 nM; GI50 (HL-60(TB)): 720 nM; GI50 (HOP-62): 3040 nM; GI50 (HOP-92): 340 nM; GI50 (HS 578T): 3680 nM; GI50 (IGROV1): 1170 nM; GI50 (K-562): 940 nM; GI50 (MALME-3M): 1400 nM; GI50 (MDA-MB-231/ATCC): 1220 nM; GI50 (MDA-MB-435): 1000 nM; GI50 (MDA-MB-468): 420 nM; GI50 (MOLT-4): 380 nM; GI50 (NCI-H226): 2480 nM; GI50 (NCI-H23): 1780 nM; GI50 (NCI-H322M): 4390 nM; GI50 (NCI-H460): 3660 nM; GI50 (NCI/ADR-RES): 3050 nM; GI50 (OVCAR-3): 490 nM; GI50 (PC-3): 2000 nM; GI50 (RPMI-8226): 1410 nM; GI50 (RXF 393): 870 nM; GI50 (SF-268): 1690 nM; GI50 (SK-MEL-28): 820 nM; GI50 (SK-MEL-2): 1830 nM; GI50 (SK-OV-3): 9780 nM; GI50 (SW-620): 420 nM; GI50 (T-47D): 740 nM; GI50 (UACC-62): 1260 nM; GI50 ([1]; leukemia cell lines CCRF-CEM, HL-60(TB), K-562, MOLT-4 and SR, read-out: growth inhibition values): 240 to 940 nM; GI50 ([1]; most of the solid tumor cell lines in the panel, read-out: GI50): 180 to 940 nM
